# Results published in PubChem BioAssay AID1963870 (Molecular Pharmacology Branch, DTP, NCI, 2024).
# Tested on: 292921-168-R-J2-PDC KRAS tumor spheroid viability
# Test: Anticancer human tumor 292921-168-R-J2-PDC patient-derived pancreatic carcinoma cell line growth inhibition [KRAS2]
# Conditions: spheroids with HUVEC and MSC; for IC50: curve of first compound; for viability, T/C: stronger effect = lower value
# Procedure, shortened: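 KRAS-mutant tumor cells were grown as spheroids with HUVEC endothelial cells and human MSCs as stroma. Targeted agents were tested alone and with KRAS pathway inhibitors. Doses started at or near clinical Cmax, or 10 microM, descending half-log.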
# [1] = second compound 0.1 µM, first compound 0.0316 µM
# [2] = second compound 0.1 µM, first compound 0.1 µM
# [3] = second compound 0.1 µM, first compound 0.316 µM
# [4] = second compound 0.1 µM, first compound 1 µM
# [5] = second compound 0.1 µM, first compound 3.16 µM
# [6] = second compound 0.1 µM, first compound 10 µM
# [7] = second compound 0.316 µM, first compound 0.0316 µM
# [8] = second compound 0.316 µM, first compound 0.1 µM
# [9] = second compound 0.316 µM, first compound 0.316 µM
# [10] = second compound 0.316 µM, first compound 1 µM
# [11] = second compound 0.316 µM, first compound 3.16 µM
# [12] = second compound 0.316 µM, first compound 10 µM
# [13] = second compound 1 µM, first compound 0.0316 µM
# [14] = second compound 1 µM, first compound 0.1 µM
# [15] = second compound 1 µM, first compound 0.316 µM
# [16] = second compound 1 µM, first compound 1 µM
# [17] = second compound 1 µM, first compound 3.16 µM
# [18] = second compound 1 µM, first compound 10 µM
# [19] = second compound 3.16 µM, first compound 0.0316 µM
# [20] = second compound 3.16 µM, first compound 0.1 µM
# [21] = second compound 3.16 µM, first compound 0.316 µM
# [22] = second compound 3.16 µM, first compound 1 µM
# [23] = second compound 3.16 µM, first compound 3.16 µM
# [24] = second compound 3.16 µM, first compound 10 µM
# [25] = second compound 10 µM, first compound 0.0316 µM
# [26] = second compound 10 µM, first compound 0.1 µM
# [27] = second compound 10 µM, first compound 0.316 µM
# [28] = second compound 10 µM, first compound 1 µM
# [29] = second compound 10 µM, first compound 3.16 µM
# [30] = second compound 10 µM, first compound 10 µM
# [31] = second compound 0.1 µM, first compound 0.01 µM
# [32] = second compound 0.316 µM, first compound 0.01 µM
# [33] = second compound 1 µM, first compound 0.01 µM
# [34] = second compound 3.16 µM, first compound 0.01 µM
# [35] = second compound 10 µM, first compound 0.01 µM
# 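Also: drug exposure lasted seven days after spheroids formed for three days.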
# 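For viability, T/C in this document: percent of DMSO vehicle control viability which is 100%.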
SMILES,IC50 (second compound 0.1 µM) [µM],IC50 (second compound 0.316 µM) [µM],IC50 (second compound 1 µM) [µM],IC50 (second compound 3.16 µM) [µM],IC50 (second compound 10 µM) [µM],"viability, T/C [1] [%]","viability, T/C [2] [%]","viability, T/C [3] [%]","viability, T/C [4] [%]","viability, T/C [5] [%]","viability, T/C [7] [%]","viability, T/C [8] [%]","viability, T/C [9] [%]","viability, T/C [10] [%]","viability, T/C [13] [%]","viability, T/C [14] [%]","viability, T/C [19] [%]","viability, T/C [20] [%]","viability, T/C [25] [%]","viability, T/C [26] [%]",other results
CC1OCC2(CCN(c3cnc(Sc4ccnc(N)c4Cl)c(N)n3)CC2)C1N (stereo not given) + CNCc1ccccc1-c1csc(C(C)Nc2nc(C)nc3cc(OC)c(OC)cc23)c1,0.296,0.203,0.0435,< 0.0316,< 0.0316,77,61.6,50,37.5,34.6,77.4,56.2,44.7,37.4,52.5,43.2,0.1,0.09,0.09,0.19,"viability, T/C [6]: 26.7%; viability, T/C [11]: 31.8%; viability, T/C [12]: 24.8%; viability, T/C [15]: 37.8%; viability, T/C [16]: 29.3%; viability, T/C [17]: 26%; viability, T/C [18]: 22.2%; viability, T/C [21]: 0.07%; viability, T/C [22]: 0.06%; viability, T/C [23]: 0.05%; viability, T/C [24]: 0.33%; viability, T/C [27]: 0.08%; viability, T/C [28]: 0.09%; viability, T/C [29]: 0.09%; viability, T/C [30]: 0.15%"
CC(=O)OC12COC1CC(O)C1(C)C(=O)C(O)C3=C(C)C(OC(=O)C(O)C(NC(=O)OC(C)(C)C)c4ccccc4)CC(O)(C(OC(=O)c4ccccc4)C21)C3(C)C (stereo not given) + COc1cc2nc(C)nc(NC(C)c3cc(N)cc(C(F)(F)F)c3)c2cc1OC1CCOC1,< 0.01,< 0.01,< 0.01,< 0.01,< 0.01,15.2,10.7,12.1,14,19,14.7,10.9,12.6,14.7,16.2,13.6,13.4,11.2,13.3,14,"viability, T/C [31]: 13.7%; viability, T/C [32]: 13.7%; viability, T/C [11]: 18.8%; viability, T/C [33]: 13.3%; viability, T/C [15]: 10.9%; viability, T/C [16]: 16.1%; viability, T/C [17]: 18.9%; viability, T/C [34]: 12.1%; viability, T/C [21]: 11.4%; viability, T/C [22]: 14.1%; viability, T/C [23]: 18.7%; viability, T/C [35]: 13.5%; viability, T/C [27]: 12.8%; viability, T/C [28]: 11.9%; viability, T/C [29]: 13.2%"
CN(C)C/C=C/C(=O)Nc1cc2c(Nc3ccc(F)c(Cl)c3)ncnc2cc1O[C@H]1CCOC1 + COc1cc2nc(C)nc(NC(C)c3cc(N)cc(C(F)(F)F)c3)c2cc1OC1CCOC1,> 0.1,> 0.1,> 0.1,0.0304,0.00118,85.4,74.5,–,–,–,66.1,58.1,–,–,84.9,75.2,52.5,44.5,45.6,47.8,"viability, T/C (second compound 0.1 µM, first compound 0.000316 µM): 94%; viability, T/C (second compound 0.1 µM, first compound 0.001 µM): 91.5%; viability, T/C (second compound 0.1 µM, first compound 0.00316 µM): 84.8%; viability, T/C [31]: 88.7%; viability, T/C (second compound 0.316 µM, first compound 0.000316 µM): 87.5%; viability, T/C (second compound 0.316 µM, first compound 0.001 µM): 74.7%; viability, T/C (second compound 0.316 µM, first compound 0.00316 µM): 72.7%; viability, T/C [32]: 73.5%; viability, T/C (second compound 1 µM, first compound 0.000316 µM): 87%; viability, T/C (second compound 1 µM, first compound 0.001 µM): 82.2%; viability, T/C (second compound 1 µM, first compound 0.00316 µM): 83.7%; viability, T/C [33]: 86.8%; viability, T/C (second compound 3.16 µM, first compound 0.000316 µM): 62.8%; viability, T/C (second compound 3.16 µM, first compound 0.001 µM): 46.8%; viability, T/C (second compound 3.16 µM, first compound 0.00316 µM): 57%; viability, T/C [34]: 54.9%; viability, T/C (second compound 10 µM, first compound 0.000316 µM): 50%; viability, T/C (second compound 10 µM, first compound 0.001 µM): 52.2%; viability, T/C (second compound 10 µM, first compound 0.00316 µM): 50.7%; viability, T/C [35]: 45.5%"
COC(=O)c1ccc2c(C(=Nc3ccc(N(C)C(=O)CN4CCN(C)CC4)cc3)c3ccccc3)c(O)[nH]c2c1 + COc1cc2nc(C)nc(NC(C)c3cc(N)cc(C(F)(F)F)c3)c2cc1OC1CCOC1,0.856,0.62,0.382,0.221,0.0319,115,103,83,49.4,4.07,95.9,96.6,62.1,37.3,103,97.5,83.9,61.1,49,44.2,"viability, T/C [6]: 0.28%; viability, T/C [11]: 19.2%; viability, T/C [12]: 0.44%; viability, T/C [15]: 47%; viability, T/C [16]: 29.5%; viability, T/C [17]: 4.33%; viability, T/C [18]: 0.36%; viability, T/C [21]: 46.5%; viability, T/C [22]: 25.1%; viability, T/C [23]: 6.39%; viability, T/C [24]: 0.44%; viability, T/C [27]: 22.8%; viability, T/C [28]: 12.8%; viability, T/C [29]: 1.24%; viability, T/C [30]: 0.24%"
O=C(c1cc(Cc2n[nH]c(=O)c3ccccc23)ccc1F)N1CCN(C(=O)C2CC2)CC1 + COc1cc2nc(C)nc(NC(C)c3cc(N)cc(C(F)(F)F)c3)c2cc1OC1CCOC1,> 10,9.62,9.77,6.44,9.86,111,119,108,113,99.8,111,105,98.2,102,130,116,86.7,82.5,83.8,84.3,"viability, T/C [6]: 52.1%; viability, T/C [11]: 92.1%; viability, T/C [12]: 48%; viability, T/C [15]: 118%; viability, T/C [16]: 119%; viability, T/C [17]: 88.7%; viability, T/C [18]: 49.2%; viability, T/C [21]: 76%; viability, T/C [22]: 75.7%; viability, T/C [23]: 63.2%; viability, T/C [24]: 41.6%; viability, T/C [27]: 77.9%; viability, T/C [28]: 73.5%; viability, T/C [29]: 85%; viability, T/C [30]: 49.8%"
